Measured values: PubChem BioAssay AID743405 (Broad Institute, 2014)
Active and inactive are the calls of the source.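 The calls were made as follows: active = signal drops with AC50 under 10 µM, fitted no higher than twice the top valid tested dose; inactive = effect in the opposite direction, plus the rest.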

Legend:
[1] = NIH3T3 cell cytotoxicity, dose response, cytotoxicity control, plate reader, dry powder (AID 743405); conditions: NIH3T3 viability, CellTiter-Glo ATP luminescence, 48 h; at 35 µM (top of the series)
[2] = test system: NIH3T3 viability, CellTiter-Glo ATP luminescence, 48 h; experiment: as above

With `Cc1ccc(CNC(=O)CSc2c3c(nc4ccc(Cl)cc24)CCCC3)o1` the activity change, negative = cytotoxicity [1] was 11.2% (inactive).

In the case of `COc1ccc(-n2ncc3c(N4CCCCC4)ncnc32)cc1`, the activity change, negative = cytotoxicity [1] is reported as -2.9% (inactive).

In the case of `Cc1ccc(-c2cn3cc(C)ccc3n2)cc1`, the AC50 [2] is reported as > 70 µM (inactive).

In the case of `Cc1cc(C(=O)COC(=O)c2ccccc2O)c(C)n1Cc1cccs1`, the activity change, negative = cytotoxicity [1] is reported as -7.18% (inactive).

With `Cc1cc(S(=O)(=O)NCc2ccncc2)c(C)cc1Br` the activity change, negative = cytotoxicity [1] was -1.39% (inactive).

In the case of `O=C1S/C(=C\c2ccc(N3CCOCC3)o2)C(=O)N1Cc1c(F)cccc1Cl`, the activity change, negative = cytotoxicity [1] is reported as 92.2% (inactive).

For `CCN(CC)Cc1c(O)ccc2c1O/C(=C\C=C\c1ccccc1)C2=O`, the activity change, negative = cytotoxicity [1] was 9.2% (inactive).

In the case of `COc1c(CC=C(C)C)cc(C2CC(=O)c3c(O)cc(O)cc3O2)cc1CC=C(C)C` (stereo not drawn), the AC50 [2] is reported as 32.9 µM.

In the case of `O=C(c1n[nH]c(=O)c2ccccc12)N1CCN(C2c3ccccc3-c3ccccc32)CC1`, the activity change, negative = cytotoxicity [1] is reported as 8.43% (inactive).

For `Cc1c(C)c2ccc(OCC(=O)Nc3ccccn3)c(C)c2oc1=O`, the AC50 [2] was 36.4 µM.

With `O=C(O)c1cccc(COc2ccccc2Cl)c1` the activity change, negative = cytotoxicity [1] was -3.99% (inactive).

With `O=C(CN1C(=O)c2ccccc2S1(=O)=O)c1ccc(Cl)cc1Cl` the activity change, negative = cytotoxicity [1] was 5.03% (inactive).

In the case of `O=C(CN1C(=O)c2ccccc2S1(=O)=O)c1ccc2c(c1)OCCCO2`, the activity change, negative = cytotoxicity [1] is reported as 8.65% (inactive).

In the case of `CCOC(=O)Cn1c(S(=O)(=O)Cc2ccccc2Cl)nc(-c2ccccc2)c1-c1ccccc1`, the activity change, negative = cytotoxicity [1] is reported as 3.41% (inactive).

With `Cc1nc(SCC(=O)Nc2nc3ccccc3s2)c(C#N)c(C)c1C` the activity change, negative = cytotoxicity [1] was -9.06% (inactive).

For `COc1ccc(CNC(=O)C(c2ccc(C)cc2)N(Cc2cccs2)C(=O)c2ccc3c(c2)OCCO3)cc1` (stereo not drawn), the activity change, negative = cytotoxicity [1] was -4.92% (inactive).

In the case of `COc1ccc(CNC(=O)C(C)n2ccc3cc(S(=O)(=O)N4CCCCCC4)ccc32)cc1` (stereo not drawn), the activity change, negative = cytotoxicity [1] is reported as -0.861% (inactive).

For `O=C(NCCc1ccccc1)c1ccc2c(c1)OCCCO2`, the activity change, negative = cytotoxicity [1] was 4.4% (inactive).

For `O=C(NCCc1ccccc1)c1ccc2c(c1)OCCO2`, the activity change, negative = cytotoxicity [1] was 5.21% (inactive).

With `CCSc1nnc(NC(=O)c2nc(S(=O)(=O)Cc3ccc(F)cc3)ncc2Cl)s1` the activity change, negative = cytotoxicity [1] was 45.4% (inactive).

In the case of `Cc1cccc(CSc2cccc3cccnc23)c1`, the AC50 [2] is reported as > 70 µM (inactive).

In the case of `Cc1ccc(C(=O)Nc2cnc3ccccc3c2)cc1`, the activity change, negative = cytotoxicity [1] is reported as -0.872% (inactive).

In the case of `COc1ccc(OCc2cccc(C(=O)O)c2)cc1`, the AC50 [2] is reported as > 70 µM (inactive).
